Marks after values point to notes of the source that are not given here. Bridge positions count the residues as written; N and C are the ends. Peptide text beside a SMILES is read from it. I, II: the chains in the order shown.
Assays:
[1] = system: antibody producing Chinese Hamster Ovary (CHO) cells (Subclone DG44); assay: Experiment 1: cell growth (VCD) in TC-42 media, cysteine/cystine or leucine replaced by dipeptides; type: cell-based; set-up: Viable cell densities (VCD) / maximum cell densities (max. VCD): unit not given here; conditions: for maximum cell densities (max. VCD) / Viable cell densities (VCD): TC-42 media of table 2; for cell growth performance compared with reference medium (FIG. 1): same molar amount of cysteine and cystine in the form of dipeptides
Description: The influence of the L-lysine dipeptides on the growth of antibody producing Chinese Hamster Ovary (CHO) cells (Subclone DG44; Life Technologies Cooperation, Carslbad, USA) in comparison to media containing either the corresponding free amino acids or the corresponding L-alanine dipeptides was investigated. For this purpose, the cells were cultivated in a TC-42 media produced by Xell AG, Bielefeld, Germany in which the amino acids provided within the experiments by dipeptides were lacking. The concentrations of these amino acids were adjusted in such a way that, taking into account a complete hydrolysis of the dipeptides into the amino acids, the concentration of all amino acids were the same in all media tested within this experiment. […] Experiment 1: Comparison of the Cell Growths Obtained with TC-42 media in which L-cysteine/L-cystine is replaced by bis-L-alanyl-L-cystine, bis-L-prolyl-L-cystine or bis-L-lysyl-L-cystine and L-leucine is replaced by […] For this experiment a TC-42 media produced by Xell AG, Bielefeld, Germany in which […]-cystine and L-leucine were deliberately left out of the initial formulation. […] [table]

[2] = system: antibody producing Chinese Hamster Ovary (CHO) cells (Subclone DG44); assay: Antibody production (final antibody titer) in TC-42 media; type: cell-based; conditions: compared with cells cultured in reference media; 24 days (FIG. 4)
Description: FIG. 4 depicts the final antibody titer with TC-42 media obtained with oligopeptides according to the invention.
The influence of the L-lysine dipeptides on the growth of antibody producing Chinese Hamster Ovary (CHO) cells (Subclone DG44; Life Technologies Cooperation, Carslbad, USA) in comparison to media containing either the corresponding free amino acids or the corresponding L-alanine dipeptides was investigated. For this purpose, the cells were cultivated in a TC-42 media produced by Xell AG, Bielefeld, Germany in which the amino acids provided within the experiments by dipeptides were lacking. The concentrations of these amino acids were adjusted in such a way that, taking into account a complete hydrolysis of the dipeptides into the amino acids, the concentration of all amino acids were the same in all media tested within this experiment.
Additionally, the effect on antibody production was analysed comparing cells cultured in reference media and cells growing in a media containing the dipeptides bis-alanyl-L-cystine or […] for 24 days (FIG. 4).

[3] = cited from earlier work
[4] = Solubility found for Lys-Xxx dipeptides; conditions: for Solubility Lys-Xxx found: as hydrochloride or as acetate (footnotes 6, 7)
plasmin = plasmin (Homo sapiens, UniProt P00747); conditions: Chemical & Pharmaceutical Bulletin 22, 2680 (1974); cited from earlier work
Sequence of plasmin (P00747 581-810 limits assumed, species assumed): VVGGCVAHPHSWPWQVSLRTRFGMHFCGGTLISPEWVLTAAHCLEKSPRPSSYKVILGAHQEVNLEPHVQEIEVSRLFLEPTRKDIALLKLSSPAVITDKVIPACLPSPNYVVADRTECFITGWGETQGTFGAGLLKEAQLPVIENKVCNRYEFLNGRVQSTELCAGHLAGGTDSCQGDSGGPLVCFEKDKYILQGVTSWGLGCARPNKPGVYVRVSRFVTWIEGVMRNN
Sequence of plasmin (P00747 97-580 partner limits assumed, species assumed): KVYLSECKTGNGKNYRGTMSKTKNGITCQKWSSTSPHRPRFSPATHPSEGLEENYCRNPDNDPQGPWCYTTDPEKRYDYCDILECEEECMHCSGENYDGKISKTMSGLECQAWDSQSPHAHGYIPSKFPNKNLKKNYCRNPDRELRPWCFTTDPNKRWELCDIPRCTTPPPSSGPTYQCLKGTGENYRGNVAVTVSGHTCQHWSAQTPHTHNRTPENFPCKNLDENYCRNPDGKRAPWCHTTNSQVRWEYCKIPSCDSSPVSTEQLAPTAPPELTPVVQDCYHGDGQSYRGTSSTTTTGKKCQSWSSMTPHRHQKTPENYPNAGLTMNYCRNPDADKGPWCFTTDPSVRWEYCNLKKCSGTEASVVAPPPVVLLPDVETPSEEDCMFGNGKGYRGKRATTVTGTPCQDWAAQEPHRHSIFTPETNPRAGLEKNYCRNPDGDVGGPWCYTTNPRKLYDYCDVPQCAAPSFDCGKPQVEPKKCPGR

| Compound | maximum cell densities (max. VCD) [1] | Viable cell densities (VCD) ([1]; Time 0.0) | Viable cell densities (VCD) ([1]; Time 0.7) | Viable cell densities (VCD) ([1]; Time 2.0) | Viable cell densities (VCD) ([1]; Time 2.7) | Viable cell densities (VCD) ([1]; Time 3.6) | Viable cell densities (VCD) ([1]; Time 3.7) | Viable cell densities (VCD) ([1]; Time 4.7) | Viable cell densities (VCD) ([1]; Time 5.8) | Viable cell densities (VCD) ([1]; Time 6.7) | Viable cell densities (VCD) ([1]; Time 6.8) | Viable cell densities (VCD) ([1]; Time 7.8) | Viable cell densities (VCD) ([1]; Time 8.7) | Viable cell densities (VCD) ([1]; Time 9.7) | Viable cell densities (VCD) ([1]; Time 10.6) | Viable cell densities (VCD) ([1]; Time 11.6) | Viable cell densities (VCD) ([1]; Time 12.8) | Viable cell densities (VCD) ([1]; Time 13.6) | Viable cell densities (VCD) ([1]; Time 15.0) | Viable cell densities (VCD) ([1]; Time 15.9) | further results |
| --- | --- | --- | --- | --- | --- | --- | --- | --- | --- | --- | --- | --- | --- | --- | --- | --- | --- | --- | --- | --- | --- |
| Bis-L-alanyl-L-cystine [Ala2-Cyss, reference compound] | 15.06 | 0.26 | 0.42 | 0.47 | 0.67 | 0.84 | 0.36 | 0.71 | 1.52 | 2.34 | 0.32 | 0.48 | 1.06 | 1.79 | 3.19 | 4.89 | 7.65 | 10.01 | 11.62 | 15.06 | Viable cell densities (VCD) ([1]; Time 16.7): 14.38; Viable cell densities (VCD) ([1]; Time 17.8): 14.05; Viable cell densities (VCD) ([1]; Time 18.7): 14.28; cell growth performance compared with reference medium (FIG. 1) [1]: the cells were able to utilize the peptides for growth; antibody production increased by [2]: at least 30%; Solubility Ala-Xxx ([3]; Degussa product brochure, cystine value WO 2011/133902): 8.7 ^2) g/1000 g solution; solubility ([3]; prior art values, background): 15.3 g/ltr |
| NCCCC[C@H](N)C(=O)N[C@@H](CSSC[C@H](NC(=O)[C@@H](N)CCCCN)C(=O)O)C(=O)O [Lys2-Cyss, Bis-L-lysyl-L-cystine × 4HCl] (I: H-Lys-Cys-OH / II: H-Lys-Cys-OH; disulfide I:2-II:2) | 14.16 | 0.31 | 0.39 | 0.54 | 0.83 | 1.02 | 0.39 | 0.62 | 1.18 | 1.98 | 0.30 | 0.43 | 0.98 | 1.82 | 2.88 | 4.75 | 6.68 | 9.20 | 11.93 | 13.66 | Viable cell densities (VCD) ([1]; Time 16.7): 13.41; Viable cell densities (VCD) ([1]; Time 17.8): 14.16; Viable cell densities (VCD) ([1]; Time 18.7): 14.15; cell growth performance compared with reference medium (FIG. 1) [1]: performance comparable to bis-alanyl-L-cystine; antibody production increased by [2]: ~50%; Solubility Lys-Xxx found [4]: >500 ^6) g/1000 g solution; solubility found ([4]; hydrochloride): > 50 % (w/w) |
| Lys-Lys [reference compound] |  |  |  |  |  |  |  |  |  |  |  |  |  |  |  |  |  |  |  |  | cleavage (hydrolysis) by plasmin (plasmin): none of these peptides were cleaved |
| CC(=O)O.CC(C)C[C@H](NC(=O)[C@@H](N)CCCCN)C(=O)O [Lys-Leu, L-Lysyl-L-leucine acetat] (H-Lys-Leu-OH) | 12.43 | 0.33 | 0.39 | 0.59 | 0.81 | 0.92 | 0.34 | 0.56 | 0.94 | 1.40 | 0.30 | 0.45 | 0.79 | 1.24 | 1.81 | 2.38 | 3.12 | 3.66 | 4.52 | 5.47 | Viable cell densities (VCD) ([1]; Time 16.7): 6.10; Viable cell densities (VCD) ([1]; Time 17.8): 6.03; Viable cell densities (VCD) ([1]; Time 18.7): 7.23; Viable cell densities (VCD) ([1]; Time 19.9): 10.51; Viable cell densities (VCD) ([1]; Time 20.7): 12.43; Viable cell densities (VCD) ([1]; Time 21.8): 12.15; Viable cell densities (VCD) ([1]; Time 22.8): 11.82; cleavage (hydrolysis) by plasmin (plasmin): none of these peptides were cleaved; Solubility Lys-Xxx found [4]: >330 ^7) g/1000 g solution |

From patent publication US20190390161A1, “CULTURE MEDIUM COMPRISING OLIGOPEPTIDES” (Evonik Degussa GmbH, priority 2017, published 2019)
